Assay [1] concerns therapeutic-susceptible MCF7 cancer cells. Put plainly: Cytotoxicity against therapeutic-susceptible MCF7. Type of assay: cell-based. The conditions noted are these: Homo sapiens. As to the method: (§1) Further, Table 2 regards anticancer activity against therapeutic-susceptible MCF7 cancer cells with an incubation time of 48 hours. For the combination therapies, the cancer cells were treated with the antimicrobial polymer for 4 hours followed by treatment with doxorubicin for 44 hours. Also, Table 3 regards anticancer activity against therapeutic-resistant MCF7 cancer cells with an incubation time of 48 hours. For the combination therapies, the cancer cells were treated with the antimicrobial polymer for 4 hours followed by treatment with doxorubicin for 44 hours.

The subject of assay [2] is therapeutic-resistant MCF7/ADR cell line. Put plainly: Cytotoxicity against therapeutic-resistant MCF7/ADR. The conditions noted are these: Homo sapiens. Type of assay: cell-based. As to the method: as §1
The test system of assay [3] is BT474 cell line. The assay is described as follows: cells. As to conditions: Homo sapiens, BT-474, read-out: absolute IC50 in treating BT474. The text has this:
Cytotoxicity graph 2100 regards treating BT474 solely with doxorubicin.

In assay [4] the test system is MCR-1-positive E. coli strains. The assay is described as follows: Checkerboard assay / MIC, MCR-1-positive colistin-resistant E. coli. Type of assay: cell-based. As to conditions: for MIC against MCR-1-positive E. coli: alone. An excerpt:
Repetitive description of like elements employed in other embodiments described herein is omitted for sake of brevity.
Plasmid-mediated colistin-resistance has been reported in Gram-negative bacteria, which resulted from a MCR-1 enzyme that catalyzes the transfer of phosphoethanolamine to lipid A; thereby rendering the membrane more electropositive.

Assay [5] deals with therapeutic-resistant SK-OV-3-TR cell line. Put plainly: Cytotoxicity against SK-OV-3-TR. Format: cell-based. As to conditions: SKOV3TR; FIG. 25; read-out: absolute IC50 in treating SK-OV-3-TR.
Source text: Cytotoxicity graph 2500 regards treating SK-OV-3-TR solely with paclitaxel. […] Cytotoxicity graph 2502 regards treating SK-OV-3-TR solely with the example quaternary ammonium functionalized antimicrobial polymer 1402 (e.g., wherein “n” equals 21). […] Cytotoxicity graph 2504 regards treating SK-OV-3-TR solely with the example guanidinium functionalized antimicrobial polymer 1404 (e.g., wherein “m” equals 20). […] Cytotoxicity graph 2506 regards treating SK-OV-3-TR with a combination therapy of paclitaxel with 0.5 IC50 of the example quaternary ammonium functionalized antimicrobial polymer 1402 (e.g., wherein “n” equals 21). […] Cytotoxicity graph 2508 regards treating SK-OV-3-TR with a combination therapy of paclitaxel with 0.5 IC50 of example guanidinium functionalized antimicrobial polymer 1404 (e.g., wherein “m” equals 20).
[6] abbreviates: MCF7, FIG. 22 and FIG. 24, read-out: absolute IC50 in treating MCF7.
[7] abbreviates: NCI/ADR-RES, FIG. 23 and FIG. 24, read-out: absolute IC50 in treating MCF7/ADR.

In brackets after ≈: the same amount, converted by molar mass. Where two headings read alike, the source gives them in different places.

As for `COc1cccc2c1C(=O)c1c(O)c3c(c(O)c1C2=O)C[C@@](O)(C(=O)CO)C[C@@H]3O[C@H]1C[C@H](N)[C@H](O)[C@H](C)O1` [DOX, doxorubicin], the IC50 stood at 0.15 µg/mL in assay [1] (setting [6]); 0.054 µg/mL in assay [1] (MCF7, incubation 48 hours, combinations: polymer for 4 hours followed by doxorubicin for 44 hours, read-out: Absolute IC50); 139 µg/mL in assay [2] (setting [7]); 375 µg/mL in assay [2] (therapeutic-resistant MCF7, incubation 48 hours, combinations: polymer for 4 hours followed by doxorubicin for 44 hours, read-out: Absolute IC50); 8.42 µg/mL (≈ 15.5 µM) in assay [3].
On to colistin, for which the “colistin MIC against MCR-1 colistin-resistant bacteria” value in assay [4] (with pQuat_20 at ½×MIC) was less than 0.49 µg/mL.
With colistimethate sodium, the results for the “MIC against MCR-1-positive E. coli” value in assay [4] (first of two MCR-1-positive E. coli strains) and in assay [4] (second of two MCR-1-positive E. coli strains) were 15.6 µg/mL and 31.3 µg/mL, respectively.
Take `CC(=O)O[C@H]1C(=O)[C@@]2(C)[C@H]([C@H](OC(=O)c3ccccc3)[C@]3(O)C[C@H](OC(=O)[C@H](O)[C@@H](NC(=O)c4ccccc4)c4ccccc4)C(C)=C1C3(C)C)[C@]1(OC(C)=O)CO[C@@H]1C[C@@H]2O` [paclitaxel]: the IC50 was found to be 19.7 µg/mL in assay [1] (setting [6]), 5150 µg/mL in assay [2] (setting [7]) and 27.4 µg/mL (≈ 32.1 µM) in assay [5].

The values above are taken from patent publication US11331341B2, “Combination therapies that enhance antimicrobial/anticancer activities” (International Business Machines Corporation, priority 2020, dated 2022).
